Test results: US20090036475A1, “Pyrazolyl-Pyrimidines as Potassium Channel Modulating Agents and Their Medical Use” (NEUROSEARCH A/S, priority 2006, published 2009)

Target: T1, small-conductance Ca2+-activated K+ channel, subtype 3 (SK3) (Homo sapiens, UniProt Q9UGI6)
T1 construct: expressed in transfected cells; host or cells: HEK293
Assay: Whole-cell patch-clamp recording of SK3 current in HEK293 cells
Type: cell-based
Conditions: hSK3 stably expressed in HEK293 cells, baseline current at −20 mV, free Ca2+ 300 nM, room temperature
Protocol: The ionic current through small-conductance Ca^2+-activated K^+ channels (SK channels, subtype 3) is recorded using the whole-cell configuration of the patch-clamp technique.
The small-conductance Ca^2+-activated K^+ channel, subtype 3 (SK3) was cloned from human skeletal muscle and stably expressed in HEK293 cells.
Human SK3 (hSK3) was sub-cloned into the expression vector pNS3n, a customized vector derived from pcDNA3 (InVitrogen) to give the plasmid construct pNS3_hSK3. HEK293 tissue culture cells were grown in DMEM (Dulbecco's Modified Eagle Medium) supplemented with 10% FCS (foetal calf serum) at 37° C. in 5% CO2. […]
Experiments are carried out on one of several patch-clamp set-ups. […] Data are stored directly on the hard-disk and analysed by IGOR software (Wavemetrics, Lake Oswega, Oreg., USA).
The whole-cell configuration of the patch-clamp technique is applied. […] Cell capacitance is electronically compensated and the resistance between the pipette and the cell interior (the series resistance, Rs) is measured and compensated for. […]
The intracellular (pipette) solution has the following composition (in mM): 105 KCl, 45 KOH, 10 EGTA, 1.21 MgCl2, 7.63 CaCl2, and 10 HEPES (pH=7.2 with HCl). The calculated free concentration of Ca^2+ in this solution is 300 nM and that of Mg^2+ is 1 mM. […]
Active compounds are quantified by calculating the change in baseline current at −20 mV. […]
In the case of `Cc1cc(NC2CCCCC2)nc(-n2nc(C)cc2C)n1` [Compound A2, Cyclohexyl-[2-(3,5-dimethyl-pyrazol-1-yl)-6-methyl-pyrimidin-4-yl]-amine], the “SC100 (Stimulating Concentration required for increasing the baseline current by 100%)” value is reported as 0.1 µM.

Tested on: not given
Assay: not given
Conditions: not given
`Cc1cc(C)n(-c2nccc(Nc3ccc(Cl)cc3)n2)n1` [Compound B9, (4-Chloro-phenyl)-[2-(3,5-dimethyl-pyrazol-1-yl)-pyrimidin-4-yl]-amine] showed a melting point of 135.5 to 140 °C. Molecule `Cc1cc(Nc2ccc(Cl)c(Cl)c2)nc(-n2nc(C)cc2C)n1` [Compound B4, (3,4-Dichloro-phenyl)-[2-(3,5-dimethyl-pyrazol-1-yl)-6-methyl-pyrimidin-4-yl]-amine] has a melting point of 135.3 to 137.8 °C. For `Cc1cc(C)n(-c2ncc(C)c(Nc3ccc(Cl)cc3)n2)n1` [Compound B12, (4-Chloro-phenyl)-[2-(3,5-dimethyl-pyrazol-1-yl)-5-methyl-pyrimidin-4-yl]-amine], the melting point was 179.2 to 182.3 °C. Work on `Cc1cc(Nc2ccccc2)nc(-n2nc(C)cc2C)n1` [Compound B2, [2-(3,5-Dimethyl-pyrazol-1-yl)-6-methyl-pyrimidin-4-yl]-phenyl-amine] yielded a melting point of 134.5 to 138.8 °C. Molecule `Cc1cc(C)n(-c2nccc(Nc3cccc(C(F)(F)F)c3)n2)n1` [Compound B8, [2-(3,5-Dimethyl-pyrazol-1-yl)-pyrimidin-4-yl]-(3-trifluoromethyl-phenyl)-amine] has a melting point of 98.5 to 99.6 °C. `Cc1cc(C)n(-c2ncc(Br)c(Nc3ccc(Cl)cc3)n2)n1` [Compound B10, [5-Bromo-2-(3,5-dimethyl-pyrazol-1-yl)-pyrimidin-4-yl]-(4-chloro-phenyl)-amine] showed a melting point of 144.5 to 154 °C. `Cc1cc(C)n(-c2ncc(Cl)c(NC3CCCCC3)n2)n1` [Compound A6, [5-Chloro-2-(3,5-dimethyl-pyrazol-1-yl)-pyrimidin-4-yl]-cyclohexyl-amine] showed a melting point of 90 to 99 °C. Molecule `Cc1ccc(Nc2cc(C)nc(-n3nc(C)cc3C)n2)cc1` [Compound B1, [2-(3,5-Dimethyl-pyrazol-1-yl)-6-methyl-pyrimidin-4-yl]-p-tolyl-amine] has a melting point of 135.1 to 137.5 °C. With `Cc1ccc(Nc2ccnc(-n3nc(C)cc3C)n2)cc1` [Compound B11, [2-(3,5-Dimethyl-pyrazol-1-yl)-pyrimidin-4-yl]-p-tolyl-amine] the melting point was 52 to 55.6 °C. Work on `Cc1cc(C)n(-c2nccc(NC3CCCCC3)n2)n1` [Compound A5, Cyclohexyl-[2-(3,5-dimethyl-pyrazol-1-yl)-pyrimidin-4-yl]-amine] yielded a melting point of 144.5 to 146.7 °C. Molecule `Cc1cc(NCc2ccccc2)nc(-n2nc(C)cc2C)n1` [Compound A1, Benzyl-[2-(3,5-dimethyl-pyrazol-1-yl)-6-methyl-pyrimidin-4-yl]-amine] has a melting point of 135.9 to 137.3 °C. With `Cc1cc(Nc2ccc(Cl)cc2)nc(-n2nc(C)cc2C)n1` [Compound B3, (4-Chloro-phenyl)-[2-(3,5-dimethyl-pyrazol-1-yl)-6-methyl-pyrimidin-4-yl]-amine] the melting point was 181 to 183.2 °C. In the case of `Cc1cc(Nc2cccc(C(F)(F)F)c2)nc(-n2nc(C)cc2C)n1` [Compound B6, [2-(3,5-Dimethyl-pyrazol-1-yl)-6-methyl-pyrimidin-4-yl]-(3-trifluoromethyl-phenyl)-amine], the melting point is reported as 130.5 to 133.6 °C.
